The text below walks through data of patent US11344510B2, “Arylcyclohexylamine derivatives and their use in the treatment of psychiatric disorders” (Gilgamesh Pharmaceuticals, Inc., priority 2019, dated 2022).

What is called inhibition is the drop in the measured response relative to a control, in per cent. The term half-life denotes the time needed for the level to fall by half in the phase considered. As a reminder, the microsomal CLint is the rate of metabolic loss divided by the concentration. A low value points to greater metabolic stability. For orientation: Ki means a dissociation constant, usually derived from enzyme kinetics or from competition with a known ligand. Usually IC50 stands for the midpoint of a concentration-inhibition curve.

Each structure is given as a SMILES string. Counter-ions that a name gives are not always drawn.

Series [1] addresses T1, dopamine transporter (DAT) (Homo sapiens, UniProt Q01959).
T1 construct: expressed in transfected cells; host or cells: CHO (uptake)
Kind of series: Fluorescent substrate uptake inhibition, DAT. It counts as cell-based. To be noted: for inhibition at 10 µM: CHO cells expressing DAT.

Series [2] has as its target T2, vesicular monoamine transporter 2 (VMAT2) (Homo sapiens, UniProt Q05940).
T2 construct: expressed in transfected cells
Kind of series: Fluorescent substrate uptake inhibition, VMAT2. The following applies: for inhibition at 10 µM: transfected cells. It counts as cell-based.

The nature of series [3]: RLM stability (High Activity). It counts as in vitro ADME, Sprague Dawley rats. To be noted: for half-life at 1 μM / microsomal CLint at 1 μM: male, Sprague Dawley, rat, liver microsomes, pH 7.4, Condition 2 (High Activity), 1.0 mg protein/mL. The procedure: RLM Stability (High Activity). Pooled RLM from male Sprague Dawley rats (XenoTech R1000, lot #1910100) were used. Microsomal incubations were carried out in 96-well plates in 5 aliquots of 40 μL each (one for each time point). Liver microsomal incubation medium consisted of PBS (100 mM, pH 7.4), MgCl2 (3.3 mM), NADPH (3 mM), glucose-6-phosphate (5.3 mM), and glucose-6-phosphate dehydrogenase (0.67 units/mL), with 1.0 mg of liver microsomal protein per mL. Control incubations were performed by replacing the NADPH-cofactor system with PBS. Test compounds (1 μM, final solvent concentration 1.6%) were incubated with microsomes at 37° C., shaking at 100 rpm. Incubations were performed in duplicate. Five time points over 60 minutes were analyzed. The reactions were stopped by adding 9 volumes of 90% acetonitrile-water to incubation aliquots, followed by protein sedimentation by centrifugation at 5500 rpm for 3 minutes. Supernatants were analyzed for parent compound remaining using a fit-for-purpose liquid chromatography-tandem mass spectrometry (LC-MS/MS) method, with authentic samples of each analyte used for identity confirmation.
Data Analysis. The elimination constant (kel), half-life (t1/2) and intrinsic clearance (Clint) were determined in a plot of […] versus time, using linear regression analysis.
Background: Microsomes from liver hold many membrane-bound enzymes, among them those of drug oxidation.

The target of series [4] is T3, serotonin transporter (SERT) (Homo sapiens, UniProt P31645).
T3 construct: expressed in transfected cells; host or cells: HEK293
The experiment in a line: Fluorescent substrate uptake inhibition, SERT. It counts as cell-based. To be noted: for inhibition at 10 µM: HEK293 cells expressing SERT.

Series [5] is described as follows: MLM stability (High Activity). It counts as in vitro ADME, BALB/c mice. The following applies: male, BALB/c, mouse, liver microsomes, pH 7.4, Condition 2 (High Activity), 1.0 mg protein/mL. A digest of the protocol:
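Pooled male BALB/c mouse liver microsomes (1.0 mg/mL) in 100 mM PBS pH 7.4 with NADPH-regenerating system; compound 1 μM, 37 °C, five time points over 60 min, duplicate; NADPH-free controls. Parent remaining by LC-MS/MS; kel, t1/2 and Clint from linear regression of ln(AUC) versus time.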

In series [6] the target is MK-801 binding site of the N-methyl-D-aspartate receptor (NMDAR). The experiment in a line: NMDAR radioligand binding with [3H]MK-801, Method B. Set-up: species or system Sprague Dawley rat. The following applies: for Ki: MK-801 site, Method B, male Sprague Dawley rat cortex, 5.0 nM [3H]MK-801, read-out: NMDAR Ki ± SEM. The procedure:
Radioligand Binding—Method B. Affinity of the test compounds for NMDAR was determined in radioligand binding experiments with [^3H]MK-801 by WuXi AppTec (Hong Kong) Limited, under the conditions described in Table 13.

Series [7] can be described thus: HLM stability (High Activity). It counts as in vitro ADME. To be noted: both sexes, human, liver microsomes, pH 7.4, Condition 2 (High Activity), 1.0 mg protein/mL. A digest of the protocol:
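Pooled male and female human liver microsomes, 1.0 mg protein/mL, in 100 mM PBS pH 7.4 with NADPH-regenerating system; compound 1 μM at 37° C, five time points over 60 min. Parent remaining by LC-MS/MS; kel, t1/2 and Clint from linear regression of ln(AUC) versus time.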

T1 sequence (Q01959 whole entry, species assumed): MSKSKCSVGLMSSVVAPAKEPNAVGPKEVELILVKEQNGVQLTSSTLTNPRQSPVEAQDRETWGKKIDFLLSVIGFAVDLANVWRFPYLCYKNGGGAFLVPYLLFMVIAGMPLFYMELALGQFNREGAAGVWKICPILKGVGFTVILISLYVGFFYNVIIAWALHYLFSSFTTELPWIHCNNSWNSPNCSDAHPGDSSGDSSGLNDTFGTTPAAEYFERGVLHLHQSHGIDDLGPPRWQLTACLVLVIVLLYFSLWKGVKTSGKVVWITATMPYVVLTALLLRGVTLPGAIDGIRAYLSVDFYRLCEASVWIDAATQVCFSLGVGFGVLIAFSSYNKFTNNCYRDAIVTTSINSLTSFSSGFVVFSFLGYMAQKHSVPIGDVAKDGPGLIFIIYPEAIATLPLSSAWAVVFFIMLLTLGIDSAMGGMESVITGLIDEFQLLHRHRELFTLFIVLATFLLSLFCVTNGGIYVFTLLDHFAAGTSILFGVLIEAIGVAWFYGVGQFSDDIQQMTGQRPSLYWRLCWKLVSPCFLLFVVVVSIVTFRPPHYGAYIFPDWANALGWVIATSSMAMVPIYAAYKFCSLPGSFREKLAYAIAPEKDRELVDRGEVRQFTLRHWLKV
T3 sequence (P31645 whole entry, species assumed): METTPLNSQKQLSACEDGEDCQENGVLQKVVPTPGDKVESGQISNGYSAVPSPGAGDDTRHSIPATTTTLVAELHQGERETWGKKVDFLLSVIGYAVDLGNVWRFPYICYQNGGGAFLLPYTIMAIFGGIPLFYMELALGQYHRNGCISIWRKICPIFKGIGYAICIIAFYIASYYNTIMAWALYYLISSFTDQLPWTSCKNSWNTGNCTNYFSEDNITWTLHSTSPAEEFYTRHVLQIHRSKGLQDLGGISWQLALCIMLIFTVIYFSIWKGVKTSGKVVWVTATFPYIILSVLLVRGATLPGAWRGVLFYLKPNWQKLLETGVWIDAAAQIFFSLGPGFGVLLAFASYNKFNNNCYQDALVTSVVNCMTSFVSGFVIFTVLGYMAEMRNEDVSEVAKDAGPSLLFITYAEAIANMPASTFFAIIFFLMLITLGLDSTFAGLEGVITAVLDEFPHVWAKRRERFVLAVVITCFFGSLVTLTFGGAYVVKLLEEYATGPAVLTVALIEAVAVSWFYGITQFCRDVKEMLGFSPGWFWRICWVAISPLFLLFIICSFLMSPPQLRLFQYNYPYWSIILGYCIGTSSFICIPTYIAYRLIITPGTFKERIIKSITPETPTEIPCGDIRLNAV
T2 sequence (Q05940 whole entry, species assumed): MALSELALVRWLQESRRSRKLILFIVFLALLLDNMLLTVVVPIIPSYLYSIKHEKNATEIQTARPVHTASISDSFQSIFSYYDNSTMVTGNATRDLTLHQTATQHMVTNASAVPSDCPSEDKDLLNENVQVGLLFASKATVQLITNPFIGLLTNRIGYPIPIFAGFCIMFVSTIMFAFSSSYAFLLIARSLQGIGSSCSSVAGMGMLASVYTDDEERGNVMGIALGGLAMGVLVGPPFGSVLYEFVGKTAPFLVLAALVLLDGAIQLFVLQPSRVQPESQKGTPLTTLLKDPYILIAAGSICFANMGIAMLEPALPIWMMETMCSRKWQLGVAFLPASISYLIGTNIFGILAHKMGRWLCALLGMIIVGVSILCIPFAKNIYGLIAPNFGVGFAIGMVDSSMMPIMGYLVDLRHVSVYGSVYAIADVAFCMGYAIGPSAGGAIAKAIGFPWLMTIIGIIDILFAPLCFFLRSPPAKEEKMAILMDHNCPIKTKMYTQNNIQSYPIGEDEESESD

On to `[2H]C([2H])([2H])N[C@@]1(c2ccccc2)CCCCC1=O` [Compound 88R, (R)-2-((methyl-d3)amino)-2-phenylcyclohexan-1-one], for which the inhibition at 10 µM stood at 7.9% in series [1], 20.2% in series [2] and 25.9% in series [4]. For the same molecule, the “metabolic stability compared to non-deuterated counterparts 14R and 14S” value in series [3] (High Activity) is reported as “increased metabolic stability”. Also, the half-life at 1 μM was 0.66 h in series [3], 1.76 h in series [5] and 2.92 h in series [7]. Besides, the microsomal CLint at 1 μM was 18 µL/min/mg in series [3], 7 µL/min/mg in series [5] and 4 µL/min/mg in series [7]. Besides, the Ki in series [6] worked out at 3.4 µM.
On to `CN[C@]1(c2cccc(F)c2)CCCCC1=O` [Compound 19S, (5)-2-(3-fluorophenyl)-2-(methylamino)cyclohexan-1-one], for which the figures for the inhibition at 10 µM in series [1], in series [2] and in series [4] were 18.1%, -0.87% and 20.6%, respectively. Besides, the half-life at 1 μM in series [3] came out at 0.313 h; in series [5] it was 1.01 h; in series [7], 1.59 h. Further, the results for the microsomal CLint at 1 μM in series [3], in series [5] and in series [7] were 37 µL/min/mg, 11 µL/min/mg and 7 µL/min/mg, respectively. In series [6], the Ki is 2.1 µM.
In the case of `Cc1ccccc1[C@]1(N)CCCCC1=O` [Compound 114R, (R)-2-amino-2-(o-tolyl)cyclohexan-1-one], the inhibition at 10 µM in series [1] is 6.2%; in series [2] it was -14%; in series [4], 23.4%. Besides, the Ki in series [6] was over 23 µM.
In the case of `O=C1CCCC[C@]1(c1ccccc1)N1CCC1` [Compound 84R, (R)-2-(azetidin-1-yl)-2-phenyl-cyclohexan-1-one], the figures for the IC50 in series [1], in series [2] and in series [4] were 19.4 µM, 98.2 µM and 0.8 µM, respectively. In addition, the inhibition at 10 µM in series [1] is 28.2%; in series [2], 14.1%; in series [4], 75.2%. The values for the half-life at 1 μM in series [3], in series [5] and in series [7] were 0.363 h, 0.378 h and 2.75 h, respectively. In addition, the microsomal CLint at 1 μM in series [3] is 32 µL/min/mg; in series [5], 30 µL/min/mg; in series [7], 4 µL/min/mg. In addition, the Ki in series [6] was found to be 2.3 µM.
As to `O=C1CCCC[C@@]1(c1ccccc1)N1CCC1` [Compound 84S, (S)-2-(azetidin-1-yl)-2-phenyl-cyclohexan-1-one], the IC50 in series [1] was 19.5 µM; in series [2], over 100 µM; in series [4], 0.94 µM. Also, the inhibition at 10 µM worked out at 32.2% in series [1], 10.9% in series [2] and 91.9% in series [4]. The half-life at 1 μM in series [3] is 0.505 h; in series [5], 0.322 h; in series [7] it was 2.76 h. In addition, the microsomal CLint at 1 μM worked out at 23 µL/min/mg in series [3], 36 µL/min/mg in series [5] and 4 µL/min/mg in series [7]. The Ki in series [6] was found to be 1.3 µM.
Turning to `CNC1(c2ccccc2)CCCCC1=O` (racemic) [Compound 14rac, 2-(methylamino)-2-phenylcyclohexan-1-one hydrochloride], in series [7], the half-life at 1 μM is 6.12 h and the intrinsic metabolic clearance (microsomal CLint) at 1 μM stood at 2 µL/min/mg.
Consider `CNC1(c2ccccc2Cl)CCCCC1=O` (racemic) [rac-ketamine, racemic ketamine, reference compound], for which the results for the half-life at 1 μM in series [3], in series [5] and in series [7] were 0.0767 h, 0.155 h and 0.613 h, respectively. The microsomal CLint at 1 μM in series [3] is 151 µL/min/mg; in series [5], 75 µL/min/mg; in series [7], 19 µL/min/mg.
For the molecule `Cc1ccccc1[C@@]1(N)CCCCC1=O` [Compound 114S, (S)-2-amino-2-(o-tolyl)cyclohexan-1-one], the figures for the inhibition at 10 µM in series [1], in series [2] and in series [4] were -15.2%, -15.9% and -4%, respectively. The Ki in series [6] amounted to 2.5 µM.
Consider `N[C@@]1(c2ccccc2)CCCCC1=O` [Compound 11R, (R)-2-amino-2-phenyl-cyclohexan-1-one], for which the inhibition at 10 µM was -11.8% in series [1], 14.4% in series [2] and 0.19% in series [4]. For the same molecule, the half-life at 1 μM in series [3] worked out at 1.72 h; in series [5] it was 2.82 h; in series [7], 3.31 h. In addition, the values for the microsomal CLint at 1 μM in series [3], in series [5] and in series [7] were 7 µL/min/mg, 4 µL/min/mg and 3 µL/min/mg, respectively. Moreover, in series [6], the Ki came to 9.4 µM.
Turning to `N[C@]1(c2ccccc2)CCCCC1=O` [Compound 11S, (S)-2-amino-2-phenyl-cyclohexan-1-one], the inhibition at 10 µM was 10.1% in series [1], -17.4% in series [2] and -2.6% in series [4]. For the same molecule, the half-life at 1 μM in series [3] amounted to 1.82 h; in series [5] it was 3.62 h; in series [7], 3.25 h. In addition, the intrinsic metabolic clearance (microsomal CLint) at 1 μM in series [3] came to 6 µL/min/mg; in series [5], 3 µL/min/mg; in series [7], 4 µL/min/mg. Besides, in series [6], the Ki was determined as 1.2 µM.
`CN[C@]1(c2ccccc2)CCCCC1=O` [Compound 14S, (S)-2-(methylamino)-2-phenylcyclohexan-1-one]: the inhibition at 10 µM is -4.5% in series [1], 7.4% in series [2] and 17% in series [4]. Also, the half-life at 1 μM in series [3] was 0.527 h; in series [5], 4.38 h; in series [7], 6.18 h. Moreover, the microsomal CLint at 1 μM stood at 22 µL/min/mg in series [3], 3 µL/min/mg in series [5] and 2 µL/min/mg in series [7]. Besides, the IC50 in series [4] amounted to 30.6 µM. The Ki in series [6] turned out to be 0.69 µM.
As for `O=C1CCCCC1(c1ccccc1)N1CCCC1` (racemic) [Compound 27rac, 2-phenyl-2-(pyrrolidin-1-yl)cyclohexan-1-one], the IC50 in series [1] worked out at 6.5 µM; in series [2], 11.2 µM; in series [4], 0.45 µM. Besides, the inhibition at 10 µM in series [1] is 49.5%; in series [2] it was 60.4%; in series [4], 88.6%. In addition, the half-life at 1 μM came out at 0.583 h in series [5] and 3.87 h in series [7]. Further, the values for the intrinsic clearance (microsomal CLint) at 1 μM in series [5] and in series [7] were 20 µL/min/mg and 3 µL/min/mg, respectively. The Ki in series [6] came out at 1.1 µM.
In the case of `COCCNC1(c2ccccc2)CCCCC1=O` (racemic) [Compound 29rac, 2-((2-methoxyethyl)amino)-2-phenylcyclohexan-1-one], the half-life at 1 μM in series [3] is 0.293 h; in series [5], 0.283 h; in series [7], 2.33 h. In addition, the microsomal CLint at 1 μM was determined as 39 µL/min/mg in series [3], 41 µL/min/mg in series [5] and 5 µL/min/mg in series [7]. Moreover, the Ki in series [6] was 4.4 µM.
In the case of `CN[C@@]1(c2ccccc2)CCCCC1=O` [Compound 14R, (R)-2-(methylamino)-2-phenylcyclohexan-1-one], the values for the inhibition at 10 µM in series [1], in series [2] and in series [4] were -4.5%, 6.2% and 19.3%, respectively. For the same molecule, the half-life at 1 μM in series [3] worked out at 0.303 h; in series [5], 3.28 h; in series [7] it was 9.77 h. In addition, the microsomal CLint at 1 μM is 38 µL/min/mg in series [3], 4 µL/min/mg in series [5] and 1 µL/min/mg in series [7]. The molecule further yielded an IC50 in series [4] of 45.5 µM. Also, the “NMDAR binding affinity, comparison in words” value in series [6] (14R vs rac-ketamine, (R)-ketamine, (S)-ketamine and 14S, R enantiomers vs S enantiomers or racemates) is listed as “weaker NMDAR binding”. In addition, in series [6], the Ki stood at 4.5 µM.
